test system: MAGI-CCR5 cells, HIV-1 Ba-L, beta-gal luminescence, 48 h; experiment: inhibitors of R5 HIV-1 replication in MAGI cells – MAGI-CCR5 cells, HIV-1 Ba-L, 2% serum, set 4, dose response (AID 504553);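 active = compounds blocking at least half of HIV-1 reporter signal at some tested dose, so an IC50 within the tested range; inactive = the rest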

IC50, active:
Cc1c2c(=O)n(-c3nc4ccccc4s3)nc-2cc(O)n1C1CC1 6.99 µM
Cc1c2c(=O)n(-c3nc4ccccc4s3)nc-2cc(O)n1CCC(C)C 9.35 µM
Cc1c2c(=O)n(-c3nc4ccccc4s3)nc-2cc(O)n1Cc1cccs1 7.43 µM
Cc1c2c(=O)n(-c3nc4ccccc4s3)nc-2cc(O)n1Cc1ccccc1Cl 3.39 µM
Cc1c2c(=O)n(-c3nc4ccccc4s3)nc-2cc(O)n1CCc1ccc(O)cc1 23 µM
COc1ccc(Cn2c(O)cc3nn(-c4nc5ccccc5s4)c(=O)c-3c2C)cc1 29.2 µM
Cc1c2c(=O)n(-c3nc4ccccc4s3)nc-2cc(O)n1CCc1cccs1 19 µM
COc1ccc(CCn2c(O)cc3nn(-c4nc5ccccc5s4)c(=O)c-3c2C)cc1 4.64 µM
COc1ccccc1Cn1c(O)cc2nn(-c3nc4ccccc4s3)c(=O)c-2c1C 19.6 µM
Cc1c2c(=O)n(-c3nc4ccccc4s3)nc-2cc(O)n1Cc1cccnc1 6.07 µM
Cc1c2c(=O)n(-c3nc4ccccc4s3)nc-2cc(O)n1Cc1ccncc1 9.51 µM
Cc1c2c(=O)n(-c3nc4ccccc4s3)nc-2cc(O)n1Cc1ccccc1 9.28 µM
Cc1c2c(=O)n(-c3nc4ccccc4s3)nc-2cc(O)n1Cc1ccc(F)cc1 3.53 µM
